Assay results reported in US20080058330A1, “Compounds and Combinations Thereof for Inhibiting Beta-Amyloid Production and Methods of Use Thereof” (Roskamp Research LLC, priority 2006, published 2008).

Experiments:
[1] = system: 7W WT APP751 CHO cells; assay: Screening of NF-kB activation inhibitors, Aβ1-40 and Aβ1-42 ELISA (Example 3); format: cell-based, Chinese hamster; conditions: 24 hours (FIG. 6)
Protocol: Each compound was dissolved in DMSO. 7W WT APP751 CHO cells overexpressing APP751 were plated into 96-well culture plates in 200 μL of culture medium. Each compound from the library was added to confluent cells to a final concentration of 500 nM, 1 μM, 5 μM, 10 μM and/or 30 μM. After 24 hours of treatment, culture medium was collected and dissolved 10-fold and 2-fold for measuring the level of Aβ1-40 and Aβ1-42, respectively. Aβ1-40 and Aβ1-42 were determined using commercially available ELISAs (Biosource, CA), following the recommendations of the manufacturer.

[2] = system: 7W WT APP751 CHO cells; assay: Screening of dihydropyridine compounds (Maybridge), Aβ1-40 and Aβ1-42 ELISA (Example 2); format: cell-based, Chinese hamster; conditions: 30 μM, 24 hours (FIG. 5A, 5B)
Protocol: Dihydropyridine compounds were obtained from Maybridge (England). Each compound was dissolved in DMSO. 7W WT APP751 CHO cells overexpressing APP751 were plated into 96-well culture plates in 200 μL of culture medium. Each compound from the library was added to confluent cells to a final concentration of 30 μM. After 24 hours of treatment, culture medium was collected and dissolved 10-fold and 2-fold for measuring the level of Aβ1-40 and Aβ1-42, respectively. Aβ1-40 and Aβ1-42 were determined using commercially available ELISAs (Biosource, CA), following the recommendations of the manufacturer.

COC(=O)C1=C(C)NC(C)=C(C(=O)OCCCN2CCC(c3ccccc3)(c3ccccc3)CC2)[C@H]1c1cccc([N+](=O)[O-])c1.Cl [(S)-(+)-niguldipine]
significantly decreased: concentration of Aβ1-40 compared to controls ([1]; 1 μM) | concentration of Aβ1-42 compared to controls ([1]; 1 μM) | concentration of total β-amyloid compared to controls ([1]; 1 μM) | concentration of Aβ1-40 compared to controls ([1]; 5 μM) | concentration of Aβ1-42 compared to controls ([1]; 5 μM) | concentration of total β-amyloid compared to controls ([1]; 5 μM) | concentration of Aβ1-40 compared to controls ([1]; 30 μM) | concentration of Aβ1-42 compared to controls ([1]; 30 μM) | concentration of total β-amyloid compared to controls ([1]; 30 μM)

CCOC(=O)C1=C(C)NC(C)=C(C(=O)OCC)C1c1ccc(OC)cc1Cl [RJC 03413, diethyl 4-(2-chloro-4-methoxyphenyl)-2,6-dimethyl-1,4-dihydro-3,5-pyridinedicarboxylate]
significantly decreased: concentration of Aβ1-40 compared to controls [2] | concentration of total β-amyloid (Aβ1-40+Aβ1-42) compared to controls [2]

CCOC(=O)C1=C(C)NC(C)=C(C(=O)OCC)C1c1ccc(F)cc1 [JFD 03318, diethyl 4-(4-fluorophenyl)-2,6-dimethyl-1,4-dihydropyridine-3,5-dicarboxylate]
significantly decreased: concentration of Aβ1-40 compared to controls [2] | concentration of Aβ1-42 compared to controls [2] | concentration of total β-amyloid (Aβ1-40+Aβ1-42) compared to controls [2]

CCOC(=O)C1=C(C)NC(C)=C(C(=O)OCC)C1c1ccccc1[N+](=O)[O-] [JFD 03311, diethyl 2,6-dimethyl-4-(2-nitrophenyl)-1,4-dihydropyridine-3,5-dicarboxylate]
significantly decreased: concentration of Aβ1-40 compared to controls [2] | concentration of total β-amyloid (Aβ1-40+Aβ1-42) compared to controls [2]

CCOC(=O)C1=C(C)NC(C)=C(C(=O)OCC)C1c1cccc([N+](=O)[O-])c1 [XBX 00343, diethyl 2,6-dimethyl-4-(3-nitrophenyl)-1,4-dihydropyridine-3,5-dicarboxylate]
significantly decreased: concentration of Aβ1-40 compared to controls [2] | concentration of total β-amyloid (Aβ1-40+Aβ1-42) compared to controls [2]

COC(=O)C1=C(C)NC(C)=C(C(=O)OCCCN2CCC(c3ccccc3)(c3ccccc3)CC2)[C@@H]1c1cccc([N+](=O)[O-])c1.Cl [R-niguldipine]
significantly decreased: concentration of Aβ1-40 compared to controls ([1]; 1 μM) | concentration of Aβ1-42 compared to controls ([1]; 1 μM) | concentration of total β-amyloid compared to controls ([1]; 1 μM) | concentration of Aβ1-40 compared to controls ([1]; 5 μM) | concentration of Aβ1-42 compared to controls ([1]; 5 μM) | concentration of total β-amyloid compared to controls ([1]; 5 μM) | concentration of Aβ1-40 compared to controls ([1]; 30 μM) | concentration of Aβ1-42 compared to controls ([1]; 30 μM) | concentration of total β-amyloid compared to controls ([1]; 30 μM)

Nc1ccc2ncnc(NCCc3ccc(Oc4ccccc4)cc3)c2c1 [6-amino-4-(4-phenoxyphenylethylamino)quinazoline]
significantly decreased: concentration of Aβ1-40 compared to controls ([1]; 500 nM) | concentration of Aβ1-42 compared to controls ([1]; 500 nM) | concentration of total β-amyloid compared to controls ([1]; 500 nM) | concentration of Aβ1-40 compared to controls ([1]; 5 μM) | concentration of Aβ1-42 compared to controls ([1]; 5 μM) | concentration of total β-amyloid compared to controls ([1]; 5 μM)

O=C1C=C(c2ccccc2)CN(C2CCCCC2)C1=O [HTS 01512, 1-cyclohexyl-5-phenyl-1,6-dihydro-2,3-pyridinedione]
significantly decreased: concentration of Aβ1-40 compared to controls [2] | concentration of Aβ1-42 compared to controls [2] | concentration of total β-amyloid (Aβ1-40+Aβ1-42) compared to controls [2]

CCOC(=O)C1=C(C)NC(C)=C(C(=O)OCC)C1c1ccc(Br)cc1 [JFD 01209, diethyl 4-(4-bromophenyl)-2,6-dimethyl-1,4-dihydropyridine-3,5-dicarboxylate]
significantly decreased: concentration of Aβ1-40 compared to controls [2] | concentration of Aβ1-42 compared to controls [2] | concentration of total β-amyloid (Aβ1-40+Aβ1-42) compared to controls [2]

N#Cc1c(-c2cn(-c3ccccc3)nc2-c2ccccc2)cc(-c2ccccc2)[nH]c1=O [HTS 07578, 4-(1,3-diphenyl-1H-pyrazol-4-yl)-2-oxo-6-phenyl-1,2-dihydro-3-pyridinecarbonitrile]
significantly decreased: concentration of Aβ1-40 compared to controls [2] | concentration of Aβ1-42 compared to controls [2] | concentration of total β-amyloid (Aβ1-40+Aβ1-42) compared to controls [2]

CCOC(=O)C1=C(C)NC(C)=C(C(=O)OCC)C1c1ccc([N+](=O)[O-])cc1 [JFD 03266, diethyl 2,6-dimethyl-4-(4-nitrophenyl)-1,4-dihydropyridine-3,5-dicarboxylate]
significantly decreased: concentration of Aβ1-40 compared to controls [2] | concentration of total β-amyloid (Aβ1-40+Aβ1-42) compared to controls [2]

COC(=O)C1=C(C)NC(C)=C(C(=O)OC)C1c1ccc(-c2ccsc2C(=O)OC)o1 [SEW 02070, dimethyl 4-{5-[2-(methoxycarbonyl)-3-thienyl]-2-furyl}-2,6-dimethyl-1,4-dihydropyridine-3,5-dicarboxylate]
significantly decreased: concentration of Aβ1-40 compared to controls [2] | concentration of total β-amyloid (Aβ1-40+Aβ1-42) compared to controls [2]

C=C1C(=O)O[C@@H]2C[C@@]3(C)CCCC(=C)[C@@H]3C[C@H]12 [isohelenin]
significantly decreased: concentration of Aβ1-40 compared to controls ([1]; 5 μM) | concentration of Aβ1-42 compared to controls ([1]; 5 μM) | concentration of total β-amyloid compared to controls ([1]; 5 μM) | concentration of Aβ1-40 compared to controls ([1]; 10 μM) | concentration of Aβ1-42 compared to controls ([1]; 10 μM) | concentration of total β-amyloid compared to controls ([1]; 10 μM)

CCOC(=O)C1=C(C)NC(C)=C(C(=O)OCC)C1c1ccc(Cl)cc1 [BTB 14328, diethyl 4-(4-chlorophenyl)-2,6-dimethyl-1,4-dihydropyridine-3,5-dicarboxylate]
significantly decreased: concentration of Aβ1-40 compared to controls [2] | concentration of Aβ1-42 compared to controls [2] | concentration of total β-amyloid (Aβ1-40+Aβ1-42) compared to controls [2]

NC(=O)Nc1sc(-c2ccc(F)cc2)cc1C(N)=O [IKK-2 Inhibitor IV]
significantly decreased: concentration of Aβ1-40 compared to controls ([1]; 500 nM) | concentration of Aβ1-42 compared to controls ([1]; 500 nM) | concentration of total β-amyloid compared to controls ([1]; 500 nM) | concentration of Aβ1-40 compared to controls ([1]; 5 μM) | concentration of Aβ1-42 compared to controls ([1]; 5 μM) | concentration of total β-amyloid compared to controls ([1]; 5 μM)

CC1=C(O)C(=O)C=C2C1=CC=C1[C@@]2(C)CC[C@@]2(C)[C@@H]3C[C@](C)(C(=O)O)CC[C@]3(C)CC[C@]12C [celastrol]
significantly decreased: concentration of Aβ1-40 compared to controls ([1]; 500 nM) | concentration of Aβ1-42 compared to controls ([1]; 500 nM) | concentration of total β-amyloid compared to controls ([1]; 500 nM) | concentration of Aβ1-40 compared to controls ([1]; 5 μM) | concentration of Aβ1-42 compared to controls ([1]; 5 μM) | concentration of total β-amyloid compared to controls ([1]; 5 μM)

C[C@@H]1CC[C@H]2[C@@H](C)C(=O)O[C@@H]3O[C@@]4(C)CC[C@@H]1[C@]32OO4 [artemisinin]
significantly decreased: concentration of Aβ1-40 compared to controls ([1]; 1 μM) | concentration of Aβ1-42 compared to controls ([1]; 1 μM) | concentration of total β-amyloid compared to controls ([1]; 1 μM) | concentration of Aβ1-40 compared to controls ([1]; 30 μM) | concentration of Aβ1-42 compared to controls ([1]; 30 μM) | concentration of total β-amyloid compared to controls ([1]; 30 μM)

C=C1C(=O)[C@@]23[C@H](O)C[C@@H]4C(C)(C)CC[C@H](O)[C@@]4(CO)[C@@H]2CC[C@@H]1[C@H]3O [kamebakaurin]
significantly decreased: concentration of Aβ1-40 compared to controls ([1]; 10 μM) | concentration of Aβ1-42 compared to controls ([1]; 10 μM) | concentration of total β-amyloid compared to controls ([1]; 10 μM) | concentration of Aβ1-40 compared to controls ([1]; 30 μM) | concentration of Aβ1-42 compared to controls ([1]; 30 μM) | concentration of total β-amyloid compared to controls ([1]; 30 μM)
